Data: US20260102383A1, “LPAR1 Inhibitors” (AbbVie Inc., priority 2024, published 2026)

Target: T1, human LPAR1 (Homo sapiens, UniProt Q92633)
T1 construct: host or cells: TangoEDG2-bla U2OS cells
Assay: Arrestin assay (Arrestin Reporter EDG2-bla U2OS), inhibition of LPA-stimulated signal
Format: cell-based
Details: TangoEDG2-bla U2OS cells expressing human LPAR1; 0.25 μM LPA; read-out: Arrestin Reporter EDG2-bla U2OS Human Merged IC50
Outline: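 IC50 comes from a variable-slope 4-parameter fit of % inhibition, calculated from the beta-lactamase FRET ratio (emission 460/530 nm, excitation 409 nm, 2 h development at RT). Compounds, 10 μM down to 0.00006 μM in 3-fold steps, were given 1 h before 0.25 μM final LPA for 3 h in TangoEDG2-bla U2OS cells.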

T1 sequence (Q92633 whole entry): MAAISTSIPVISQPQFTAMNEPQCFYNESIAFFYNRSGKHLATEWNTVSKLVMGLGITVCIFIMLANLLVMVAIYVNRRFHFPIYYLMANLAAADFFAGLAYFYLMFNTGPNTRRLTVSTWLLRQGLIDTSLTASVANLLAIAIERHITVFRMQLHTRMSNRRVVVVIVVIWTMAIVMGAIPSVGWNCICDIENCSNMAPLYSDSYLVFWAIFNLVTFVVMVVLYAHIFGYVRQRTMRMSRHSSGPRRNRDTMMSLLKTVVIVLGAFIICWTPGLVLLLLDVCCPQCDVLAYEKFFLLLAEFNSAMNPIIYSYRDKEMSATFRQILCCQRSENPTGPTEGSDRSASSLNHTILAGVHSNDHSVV

| IC50 [nM] | Molecule |
| --- | --- |
| 11 | CC(C)c1ccnn1C1(C(=O)Nc2ccc(Cl)cc2OC(F)F)CCN(CC2(C(=O)O)CCN(c3cnccn3)CC2)CC1 [Compound 18, 4-[[4-[[4-chloro-2-(difluoromethoxy)phenyl]carbamoyl]-4-(5-isopropylpyrazol-1-yl)-1-piperidyl]methyl]-1-pyrazin-2-yl-piperidine-4-carboxylic acid] |
| 32.3 | CC(C)c1ccnn1C1(C(=O)Nc2ccc(Cl)cc2OC(F)F)CCN(C[C@H](C)C(=O)O)CC1 [Compound 87, (2S)-3-[4-[[4-chloro-2-(difluoromethoxy)phenyl]carbamoyl]-4-(5-isopropylpyrazol-1-yl)-1-piperidyl]-2-methyl-propanoic acid] |
| 29.2 | CO[C@H]1C[C@H]([C@H](CN2CCC(C(=O)Nc3ccc(Cl)cc3OC(F)F)(n3nccc3C(C)C)CC2)C(=O)O)C1 [Compound 229, (2R)-3-[4-[[4-chloro-2-(difluoromethoxy)phenyl]carbamoyl]-4-(5-isopropylpyrazol-1-yl)-1-piperidyl]-2-((1r,3R)-3-methoxycyclobutyl) propanoic acid] |
| 38.3 | CO[C@H]1C[C@@H]([C@@H](CN2CCC(C(=O)Nc3ccc(Cl)cc3OC(F)F)(n3nccc3C(C)C)CC2)C(=O)O)C1 [Compound 227, (2S)-3-[4-[[4-chloro-2-(difluoromethoxy)phenyl]carbamoyl]-4-(5-isopropylpyrazol-1-yl)-1-piperidyl]-2-((1s,3R)-3-methoxycyclobutyl) propanoic acid] |
| 67.6 | CC(C)c1ccnn1C1(C(=O)Nc2ccc(Cl)cc2OC(F)F)CCN(C[C@@H](C(=O)O)[C@H]2C[C@@H](C)O[C@@H](C)C2)CC1 [Compound 195, (25)-3-[4-[[4-chloro-2-(difluoromethoxy)phenyl]carbamoyl]-4-(5-isopropylpyrazol-1-yl)-1-piperidyl]-2-[(2R,4r,6S)-2,6-dimethyltetrahydropyran-4-yl]propanoic acid] |
| 34.5 | CC(C)c1ccnn1C1(C(=O)Nc2ccc(Cl)cc2OC(F)F)CCN(C[C@@H](C(=O)O)[C@H]2CCOC2)CC1 (single isomer, unassigned) [Compound 149] |
| 29.8 | CC(C)c1ccnn1C1(C(=O)Nc2ccc(Cl)cc2OC(F)F)CCN(CC2(C(=O)O)CCOC2)CC1 (stereo not drawn) [Compound 16, 3-[[4-[[4-chloro-2-(difluoromethoxy)phenyl]carbamoyl]-4-(5-isopropylpyrazol-1-yl)-1-piperidyl]methyl] tetrahydrofuran-3-carboxylic acid] |
| 39.9 | CO[C@H]1C[C@@H]([C@H](CN2CCC(C(=O)Nc3ccc(Cl)cc3OC(F)F)(n3nccc3C(C)C)CC2)C(=O)O)C1 [Compound 226] |
| 141 | CC(C)c1ccnn1C1(C(=O)Nc2ccc(Cl)cc2OC(F)F)CCN(C2COC(C(=O)O)C2)CC1 (stereo not drawn) [Compound 113, 4-[4-[[4-chloro-2-(difluoromethoxy)phenyl]carbamoyl]-4-(5-isopropylpyrazol-1-yl)-1-piperidyl]tetrahydrofuran-2-carboxylic acid] |
| 17.6 | CC(C)c1ccnn1C1(C(=O)Nc2ccc(Cl)cc2OC(F)F)CCN(CC2(C(=O)O)CCC2)CC1 [Compound 45, 1-[[4-[[4-chloro-2-(difluoromethoxy)phenyl]carbamoyl]-4-(5-isopropylpyrazol-1-yl)-1-piperidyl]methyl]cyclobutanecarboxylic acid] |

| Molecule | IC50 [nM] |
| --- | --- |
| CC(C)COC(=O)N1CCC(CN2CCC(C(=O)Nc3ccc(Cl)cc3OC(F)F)(n3nccc3C(C)C)CC2)(C(=O)O)CC1 [Compound 89, 4-[[4-[[4-chloro-2-(difluoromethoxy)phenyl]carbamoyl]-4-(5-isopropylpyrazol-1-yl)-1-piperidyl]methyl]-1-isobutoxycarbonyl-piperidine-4-carboxylic acid] | 5.93 |
| (2S)-3-[4-[[4-chloro-2- (difluoromethoxy)phenyl] carbamoyl]-4-1(65)-6- methyl-5,6-dihydro-4H- cyclopenta[c]pyrazol-1- yl]-1-piperidyl]-2- tetrahydropyran-4-yl- propanoic acid [Compound 174] | 50.2 |
